Data: US20220411397A1, “ANALOGUES OF N-ACYL-HOMOSERINE LACTONES AND PHARMACEUTICAL COMPOSITION COMPRISING SAME” (SORBONNE UNIVERSITE, priority 2019, published 2022)

Key:
[1] = tested on: Caco-2/TC7 cells; experiment: Cytotoxicity test, LDH secretion, Caco-2/TC7; type: cell-based; settings: for cytotoxicity (LDH), Caco-2/TC7: stimulated, low concentrations; for LDH secretion at the higher concentrations: ≥50 μM
Procedure: (§1) 1.2.6. […] To measure the concentration of LDH in the cell lysate, 800 μL of NADH was added to 10 μL of […] and 190 μL of 0.1 M PBS in a plastic cuvette, and the decrease in the absorbance at 340 nm was monitored for 1 min. […] The percentage of cytotoxicity could be established with the formula: […]
(§2) The cytotoxicity of the tested and control compounds was evaluated using a measurement test of the LDH (Lactate Dehydrogenase) secretion. This test is based on the measurement of the amount of LDH secreted by the cells in their supernatant, compared to the amount of LDH that will remain in the intracellular compartment. This ratio provides an indication of the membrane damage suffered by the cells, and thus of the cytotoxicity of the compound.
(§3) Two methods were used to perform this test: the measurement using an extemporaneously prepared pyruvate/NADH solution, or using the Cytotoxicity Detection Kit^PLUS(LDH) from the manufacturer Roche (Sigma-Aldrich).
(§4) Pyruvate/NADH method: pyruvate/NADH solution prepared with 4.1 mg pyruvic acid (0.62 mM) and 7.7 mg NADH (0.18 mM) in 60 ml of 0.1M PBS (pH 7.4).
(§5) For the measurement of the LDH concentration in the supernatants, 800 μL of NADH was added to 200 μL of supernatant in plastic spectrometry cuvettes, and the decrease in absorbance of the final solution was read at 340 nm for 1 min. For the measurement of the LDH concentration in the cell lysates, 800 μL of NADH was added to 10 μL of cell lysates and 190 μL of 0.1M PBS in plastic spectrometry cuvettes, and the decrease in absorbance of the final solution was read at 340 nm for 1 min. The percentage of LDH secreted was then calculated by the ratio of the decay slopes of the absorbance of the supernatants and of the cell lysates (respectively).
(§6) Cytotoxicity Detection Kit^PLUS (LDH) method: absorbance test performed according to the manufacturer's instructions. The percentage of LDH secreted was then calculated by the formula: […]

[2] = tested on: Raw264.7 murine cells; experiment: Cytotoxicity test, LDH secretion, Raw264.7; type: cell-based; settings: for cytotoxicity (LDH), Raw264.7: stimulated, low concentrations
Procedure: as §1, §2, §3, §4, §5, §6

[3] = molecular target: T1, LasR receptor (Pseudomonas aeruginosa, UniProt P25084); experiment: Activation of the LasR receptor on bacterial reporter strain E. coli pSB1075 (bioluminescence); type: cell-based
T1 construct: expressed in transfected cells; host or cells: Escherichia coli carrying plasmid pSB1075
T1 sequence (P25084 whole entry): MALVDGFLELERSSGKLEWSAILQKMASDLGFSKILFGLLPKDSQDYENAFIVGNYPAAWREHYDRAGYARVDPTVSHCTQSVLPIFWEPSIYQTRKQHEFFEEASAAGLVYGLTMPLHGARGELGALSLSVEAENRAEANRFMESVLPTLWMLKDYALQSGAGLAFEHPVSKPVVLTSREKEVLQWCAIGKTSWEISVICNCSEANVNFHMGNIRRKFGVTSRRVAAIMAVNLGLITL
Excerpt: 1.1.3. The Bacterial Reporter Strain E. coli pSB1075 • A bacterial reporter strain of the Quorum Sensing was used to study the ability of the molecules to be recognized by the Pseudomonas aeruginosa AHL receptor (LasR) and induce an activation. […] This bioluminescent strain was modified by addition of a plasmid pSB1075. This plasmid contains genes encoding both tetracycline resistance and the expression of the LasR AHL receptor from the Pseudomonas aeruginosa bacteria, as well as a fusion gene derived from the LasR promoter and the luxCDABE gene from Photorhabdus luminescence. The bacterial strain was grown in the LB medium supplemented with 5 μg/ml tetracycline to exert a selection pressure and ensure that only the desired strain was amplified. The fusion gene included in the plasmid gives the bacteria the ability to emit a bioluminescence when the LasR receptor is activated, and provides the user with a robust test for the molecular screening. […] On day 1, the culture was diluted 1:100 (P1) in 10 ml of LB medium supplemented with 5 μg/ml tetracycline and maintained for 24 hours at 37° C. under stirring at 70 rpm. On day 2, the experiment took place: a bacterial suspension extemporaneously diluted 1:10 in LB medium supplemented with 5 μg/ml tetracycline (P2) was dispensed into a black opaque 96-well plate and incubated for 4 hours with a range of AHL concentrations or controls until the resulting luminescence was read at the end point. All experiments were performed in triplicates.
1.3. […] This bioluminescent strain was developed by the addition of a plasmid pSB1075 containing genes encoding the tetracycline resistance and the expression of the LasR AHL receptor, as well as a fusion gene of the LasR promoter and the luxCDABE gene of Photorhabdus luminescence. • On day 1, a 1/100 dilution of the bacterial strain (P1) was grown for 24 hours at 37° C. under stirring (70 rpm) in a LB medium containing 5 μg/ml tetracycline (pressure selective). On day 2, P1 was diluted 1:10 in the same medium to obtain P2. In a black 96-well plate were placed 200 μL of P2 and 10 μL of the short chain compound (medium, water and DMSO for the negative controls, C4-HSL as positive control, and the test sample at the desired concentration). The plate was incubated for 4 hours at 37° C. under stirring at 70 rpm. […] After that, the incubation was continued according to the conventional protocol, with the test compound at the desired concentrations.

[4] = Resistance to hydrolysis giving the open form; type: physicochemical
[5] = tested on: human keratinocytes; experiment: Inhibition of IL-8 secretion by human keratinocytes stimulated by IL-17 and TNF-α; type: cell-based; settings: keratinocytes stimulated by IL-17 and TNF-α
[6] = tested on: human lymphocytes; experiment: Inhibition of IL-2 secretion by human lymphocytes stimulated by CD2, CD3 and CD28; type: cell-based; settings: lymphocytes stimulated by CD2, CD3 and CD28
[7] = any of the concentrations tested

Row | Structure (SMILES) | toxicity (LDH), Caco-2/TC7 [1, 7] | toxicity (LDH), Raw264.7 [2, 7] | EC50 [3] | LDH secretion ([1]; Caco-2/TC7, at 100 μM) | cytotoxicity (LDH), Caco-2/TC7 [1] | LDH secretion at the higher concentrations [1] | toxicity (LDH), Raw264.7 ([2]; at 50 μM) | LDH secreted compared with the diastereomer, Raw264.7 ([2]; at all concentrations) | cytotoxicity (LDH), Raw264.7 [2] | resistance to hydrolysis (enzymatic and spontaneous) [4] | EC50 ([5]; Homo sapiens, Keratinocyte, read-out: relative EC50, inhibition of IL-8 secretion) | maximum inhibition as % of the inhibition obtained with the reference compound betamethasone ([5]; IL-8 secretion) | EC50 ([6]; Homo sapiens, Lymphocyte, read-out: relative EC50, inhibition of IL-2 secretion) | maximum inhibition as % of the inhibition obtained with the reference compound betamethasone ([6]; IL-2 secretion)
1 | CCCCCCCCCC(=O)CC(=O)Nc1cc(Cl)ccc1O [I-6, N-(5-chloro-2-hydroxyphenyl)-3-oxododecanamide] | not toxic | not toxic | > 1000 µM | – | – | – | – | – | – | – | – | – | – | –
2 | CCCCCCCCCC(=O)CC(=O)N[C@H]1CCCC[C@H]1O [I-4, N-[(1S,2R)-2-hydroxycyclohexyl]-3-oxo-dodecanamide] | – | – | 200 µM | 9% | not cytotoxic at low concentrations | an increase in LDH secretion | toxic | greater than that secreted in the presence of (S,S)-3oxoC12-ACH | not cytotoxic at low concentrations | – | – | – | – | –
3 | CCCCCCCCCC(=O)CC(=O)N[C@H]1CCCC[C@@H]1O [I-2, N-[(1S,2S)-2-hydroxycyclohexyl]-3-oxo-dodecanamide] | – | – | 0.165 µM | – | not cytotoxic at low concentrations | not as significant | – | – | not cytotoxic at low concentrations | resistant to the hydrolysis giving an open form (both enzymatic and spontaneous) | 0.111 µM | 39% | 0.0899 µM | 46%
